Reference: patent US9884063B2, “Amido-substituted azole compounds” (Bayer Pharma Aktiengesellschaft, priority 2014, dated 2018)

Target: T1, TNKS1 (Homo sapiens, UniProt O95271)
T1 sequence (O95271 1-1327): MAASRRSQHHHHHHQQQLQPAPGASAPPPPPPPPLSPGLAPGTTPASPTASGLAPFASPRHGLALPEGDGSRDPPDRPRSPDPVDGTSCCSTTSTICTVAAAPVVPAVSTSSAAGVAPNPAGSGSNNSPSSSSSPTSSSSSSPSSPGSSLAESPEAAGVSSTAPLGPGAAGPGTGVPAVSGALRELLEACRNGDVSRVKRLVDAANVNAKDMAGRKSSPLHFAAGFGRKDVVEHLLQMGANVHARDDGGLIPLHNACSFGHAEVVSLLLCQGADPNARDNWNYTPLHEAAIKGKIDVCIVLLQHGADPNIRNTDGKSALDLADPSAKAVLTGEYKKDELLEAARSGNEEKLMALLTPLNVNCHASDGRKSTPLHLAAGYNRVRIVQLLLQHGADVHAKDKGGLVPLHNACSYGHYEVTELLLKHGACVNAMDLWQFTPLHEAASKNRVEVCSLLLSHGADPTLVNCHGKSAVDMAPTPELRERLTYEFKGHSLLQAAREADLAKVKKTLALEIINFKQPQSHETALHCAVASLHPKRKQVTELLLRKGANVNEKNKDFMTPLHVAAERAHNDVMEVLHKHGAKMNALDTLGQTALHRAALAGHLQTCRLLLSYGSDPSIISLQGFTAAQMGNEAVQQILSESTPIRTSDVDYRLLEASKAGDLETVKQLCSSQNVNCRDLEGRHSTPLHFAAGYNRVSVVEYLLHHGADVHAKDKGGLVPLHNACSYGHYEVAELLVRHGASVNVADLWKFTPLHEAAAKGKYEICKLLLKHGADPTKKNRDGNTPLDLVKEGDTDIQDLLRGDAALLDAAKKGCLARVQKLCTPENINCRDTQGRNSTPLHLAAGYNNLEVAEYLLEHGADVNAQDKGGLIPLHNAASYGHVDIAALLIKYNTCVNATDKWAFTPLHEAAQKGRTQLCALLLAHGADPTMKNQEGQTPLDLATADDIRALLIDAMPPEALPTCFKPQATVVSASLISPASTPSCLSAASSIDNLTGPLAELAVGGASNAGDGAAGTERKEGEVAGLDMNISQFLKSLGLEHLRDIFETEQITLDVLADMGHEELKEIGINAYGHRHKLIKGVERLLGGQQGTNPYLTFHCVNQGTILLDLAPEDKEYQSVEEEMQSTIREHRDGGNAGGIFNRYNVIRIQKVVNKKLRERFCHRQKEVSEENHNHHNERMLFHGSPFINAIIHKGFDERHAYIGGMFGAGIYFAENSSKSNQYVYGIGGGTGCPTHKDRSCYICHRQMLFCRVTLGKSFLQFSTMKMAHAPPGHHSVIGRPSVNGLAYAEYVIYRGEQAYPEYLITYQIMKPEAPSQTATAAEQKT
Test: Modified TNKS1 Assay 2 (auto-parsylation, [3H]-NAD+ SPA)
Type: biochemical
Settings: 6 nM TNKS1, 96 well
Procedure: The potency of selected compounds according to the invention was assessed applying an modified in vitro inhibition assay. Here, the TNKS1 catalyzed NAD^+-dependent ribosylation of the enzyme itself (auto-parsylation) was detected using [^3H]-NAD^+ as substrate and applying the scintillation proximity assay (SPA) method to detect tritium-labeled, parsylated TNKS1. The intensity of the readout signal is proportional to the incorporated [^3H]-NAD^+. Inhibition of TNKS1 leads to a decreased incorporation of [^3H]-NAD^+ and consequently to a lower readout signal intensity. The concentration of a test compound which inhibits the enzyme activity by 50% (corresponds to half of the normed readout signal intensity) is reported as IC50.
The assay was conducted in a 96 well MTP format with the identical TNKS1 enzyme sample and NAD^+ sample as in the histone ribosylation assay with the following modifications: TNKS1 enzyme sample was diluted with a modified assay buffer (50 mM MES pH 7.0, 1 mM DTT, 0.01% Triton X-100) to a final concentration of 6 nM TNKS1 and 10×NAD^+ solution was diluted with the modified assay buffer (s. above) to a final 0.445×NAD^+ solution doped with 100 Bq/ul [^3H]-NAD^+[Catalog #NET443H050UC, Perkin Elmer, Waltham, Mass., USA]. Substrate solution (10 ul) was incubated with different test compound concentrations (2.5 ul in 10% DMSO in modified assay buffer) or control (2.5 ul 10% DMSO in modified assay buffer only) and enzyme (10 ul) over night at room temperature. Incorporated tritium was measured after addition of 50 ul SPA beads (1 mg/ml) [Catalog #RPNQ0095 20 mg/ml, Perkin Elmer, Waltham, Mass., USA; diluted 1:10 with Dulbecco's phosphate buffered saline, PBS Catalog #D8537, Sigma-Aldrich, Steinheim, Germany] and detection of the photon emission with a beta count plate reader [Wallac MicroBeta®, Perkin Elmer, Waltham, Mass., USA].

Row | SMILES | IC50 [nM]
1 | CN(C)CCNC(=O)c1[nH]cnc1C(=O)Nc1ccc(NC(=O)c2ccc(F)cc2Br)cc1 [Example 217, N^4-{4-[(2-bromo-4-fluorobenzoyl)amino]phenyl}-N^5-[2-(dimethylamino)ethyl]-1H-imidazole-4,5-dicarboxamide] | 10
2 | O=C(Nc1ccc(NC(=O)c2nc[nH]c2C(=O)NCCN2CCCC2)cc1)c1ccc(F)cc1 [Example 176, N^4-{4-[(4-fluorobenzoyl)amino]phenyl}-N^5-[2-(pyrrolidin-1-yl)ethyl]-1H-imidazole-4,5-dicarboxamide] | 50
3 | CC1CCCCN1CCNC(=O)c1[nH]cnc1C(=O)Nc1ccc(NC(=O)c2ccc(F)cc2)cc1 (stereo not drawn) [Example 169, N^4-{4-[(4-fluorobenzoyl)amino]phenyl}-N^5-[2-(2-methylpiperidin-1-yl)ethyl]-1H-imidazole-4,5-dicarboxamide] | 90
4 | O=C(NCCN1CCCCC1)c1nc[nH]c1C(=O)Nc1ccc(NC(=O)c2c(F)cc(F)cc2Cl)cc1 [Example 119, N^5-{4-[(2-chloro-4,6-difluorobenzoyl)amino]phenyl}-N^4-[2-(piperidin-1-yl)ethyl]-1H-imidazole-4,5-dicarboxamide] | 2
5 | CNC(=O)c1nc[nH]c1C(=O)Nc1ccc(NC(=O)c2cc(OCCN3CCN(C)CC3)ccc2Cl)cc1 [Example 124, N^5-[4-({2-chloro-5-[2-(4-methylpiperazin-1-yl)ethoxy]benzoyl}amino)phenyl]-N^4-methyl-1H-imidazole-4,5-dicarboxamide] | > 10000
6 | CC1CCCN(CCNC(=O)c2[nH]cnc2C(=O)Nc2ccc(NC(=O)c3ccc(F)cc3Cl)cc2)C1 (stereo not drawn) [Example 208, N^4-{4-[(2-chloro-4-fluorobenzoyl)amino]phenyl}-N^5-[2-(3-methylpiperidin-1-yl)ethyl]-1H-imidazole-4,5-dicarboxamide] | 3
7 | O=C(Nc1ccc(NC(=O)c2ocnc2C(=O)NCCN2CCC(F)(F)CC2)cc1)c1ccc(F)cc1Cl [Example 218, N^5-{4-[(2-chloro-4-fluorobenzoyl)amino]phenyl}-N^4-[2-(4,4-difluoropiperidin-1-yl)ethyl]-1,3-oxazole-4,5-dicarboxamide] | 70
8 | O=C(Nc1ccc(NC(=O)c2nc[nH]c2C(=O)NCCCN2CCOCC2)cc1)c1ccc(F)cc1 [Example 206, N^4-{4-[(4-fluorobenzoyl)amino]phenyl}-N^5-[3-(morpholin-4-yl)propyl]-1H-imidazole-4,5-dicarboxamide] | 4100
9 | CC(C)(CN1CCOCC1)NC(=O)c1[nH]cnc1C(=O)Nc1ccc(NC(=O)c2ccc(F)cc2)cc1 [Example 180, N^4-{4-[(4-fluorobenzoyl)amino]phenyl}-N^5-[2-methyl-1-(morpholin-4-yl)propan-2-yl]-1H-imidazole-4,5-dicarboxamide] | 4000
10 | CC(C)(CN1CCCCC1)NC(=O)c1[nH]cnc1C(=O)Nc1ccc(NC(=O)c2ccccc2Cl)cc1 [Example 171, N^4-{4-[(2-chlorobenzoyl)amino]phenyl}-N^5-[2-methyl-1-(piperidin-1-yl)propan-2-yl]-1H-imidazole-4,5-dicarboxamide] | 200
11 | CC(C)(C)CNC(=O)c1[nH]cnc1C(=O)Nc1ccc(NC(=O)c2ccccc2Cl)cc1 [Example 148, N^4-{4-[(2-chlorobenzoyl)amino]phenyl}-N^5-(2,2-dimethylpropyl)-1H-imidazole-4,5-dicarboxamide] | 1300
12 | O=C(Nc1ccc(NC(=O)c2nc[nH]c2C(=O)NC2CC2)cc1)c1ccc(F)cc1 [Example 131, N^5-cyclopropyl-N^4-{4-[(4-fluorobenzoyl)amino]phenyl}-1H-imidazole-4,5-dicarboxamide] | > 10000
13 | O=C(Nc1ccc(NC(=O)c2nc[nH]c2C(=O)NCCN2CCC2)cc1)c1ccc(F)cc1 [Example 199, N^5-[2-(azetidin-1-yl)ethyl]-N^4-{4-[(4-fluorobenzoyl)amino]phenyl}-1H-imidazole-4,5-dicarboxamide] | 60

Further lines, results first:

Row | IC50 [nM] | SMILES
14 | 950 | CNC(=O)c1nc[nH]c1C(=O)Nc1ccc(NC(=O)c2ccc(O)cc2Cl)cc1 [Example 122, N^5-{4-[(2-chloro-4-hydroxybenzoyl)amino]phenyl}-N^4-methyl-1H-imidazole-4,5-dicarboxamide]
15 | 630 | CNC(=O)c1nc[nH]c1C(=O)Nc1ccc(NC(=O)c2ccccc2Cl)cc1 [Example 27, N^5-{4-[(2-chlorobenzoyl)amino]phenyl}-N^4-methyl-1H-imidazole-4,5-dicarboxamide]
16 | 40 | CNC(=O)c1nc[nH]c1C(=O)Nc1ccc(NC(=O)c2ccc(C)cc2Cl)cc1 [Example 244, N^5-{4-[(2-chloro-4-methylbenzoyl)amino]phenyl}-N^4-methyl-1H-imidazole-4,5-dicarboxamide]
17 | 230 | CCOc1ccc(C(=O)Nc2ccc(NC(=O)c3[nH]cnc3C(=O)NC)cc2)c(Cl)c1 [Example 250, N^5-{4-[(2-chloro-4-ethoxybenzoyl)amino]phenyl}-N^4-methyl-1H-imidazole-4,5-dicarboxamide]
18 | > 10000 | CNC(=O)c1nc[nH]c1C(=O)Nc1ccc(NC(=O)c2ccccc2O)cc1 [Example 239, N^5-{4-[(2-hydroxybenzoyl)amino]phenyl}-N^4-methyl-1H-imidazole-4,5-dicarboxamide]
19 | 20 | CNC(=O)c1nc[nH]c1C(=O)Nc1ccc(NC(=O)c2ccc(F)cc2Cl)cc1 [Example 12, N^5-{4-[(2-chloro-4-fluorobenzoyl)amino]phenyl}-N^4-methyl-1H-imidazole-4,5-dicarboxamide]
20 | 290 | CC(C)NC(=O)c1nc[nH]c1C(=O)Nc1ccc(NC(=O)c2ccc(F)cc2Cl)cc1 [Example 10, N^5-{4-[(2-chloro-4-fluorobenzoyl)amino]phenyl}-N^4-isopropyl-1H-imidazole-4,5-dicarboxamide]
21 | 150 | CNC(=O)c1nc[nH]c1C(=O)Nc1ccc(NC(=O)c2ccncc2Cl)cc1 [Example 6, N^5-{4-[(3-chloroisonicotinoyl)amino]phenyl}-N^4-methyl-1H-imidazole-4,5-dicarboxamide]
22 | 80 | CNC(=O)c1nc[nH]c1C(=O)Nc1ccc(NC(=O)c2ccc(N(C)C)cc2Cl)cc1 [Example 4, N^5-(4-{[2-chloro-4-(dimethylamino)benzoyl]amino}phenyl)-N^4-methyl-1H-imidazole-4,5-dicarboxamide]
23 | 300 | CCNC(=O)c1nc[nH]c1C(=O)Nc1ccc(NC(=O)c2ccc(OCC)cc2Cl)cc1 [Example 259, N^5-{4-[(2-chloro-4-ethoxybenzoyl)amino]phenyl}-N^4-ethyl-1H-imidazole-4,5-dicarboxamide]
24 | 30 | COCCNC(=O)c1[nH]cnc1C(=O)Nc1ccc(NC(=O)c2ccc(F)cc2Cl)cc1 [Example 130, N^4-{4-[(2-chloro-4-fluorobenzoyl)amino]phenyl}-N^5-(2-methoxyethyl)-1H-imidazole-4,5-dicarboxamide]
